From patent publication US20210253567A1, “AMORPHOUS AND CRYSTALLINE FORMS OF VALBENAZINE SALT” (SUZHOU PENGXU PHARMATECH CO., LTD., priority 2018, published 2021)

Key:
[1] = Stability of valbenazine salts, general statement
[2] = Stability HPLC data summary of Form A1 of valbenazine oxalate (appearance, assay, HPLC, chiral HPLC, moisture on storage); type: physicochemical; details: 2~8° C.; for Appearance: double PE bags sealed in laminated aluminum foil bag
Excerpt: Stability Data of Form A1 of Valbenazine Oxalate [table]

valbenazine oxalate [Form A1 of valbenazine oxalate]
stability (in words) [1]: good stability
Assay (Anhydrous) ([2]; 0 months): 100.1%
Chiral HPLC Chiral imp-1 ([2]; 0 months): 0.01%
Chiral HPLC Chiral imp-2 ([2]; 0 months): 0.04%
Chiral HPLC Chiral imp-3 ([2]; 0 months): 0.03%
Chiral HPLC Valbenazine ([2]; 0 months): 99.93%
HPLC Imp-1 (LSI) ([2]; 0 months): 0.03%
HPLC Imp-2 ([2]; 0 months): 0.01%
HPLC Imp-3 ([2]; 0 months): 0.02%
HPLC Imp-4 ([2]; 0 months): 0.02%
HPLC Imp-5 ([2]; 0 months): 0.01%
HPLC Imp-7 ([2]; 0 months): 0.01%
HPLC Valbenazine ([2]; 0 months): 99.81%
Moisture ([2]; 0 months): 0.12%
Assay (Anhydrous) ([2]; 0.5 months): 100.8%
Chiral HPLC Chiral imp-1 ([2]; 0.5 months): 0.01%
Chiral HPLC Chiral imp-2 ([2]; 0.5 months): 0.04%
Chiral HPLC Chiral imp-3 ([2]; 0.5 months): 0.03%
Chiral HPLC Valbenazine ([2]; 0.5 months): 99.93%
HPLC Imp-1 (LSI) ([2]; 0.5 months): 0.03%
HPLC Imp-3 ([2]; 0.5 months): 0.03%
HPLC Imp-5 ([2]; 0.5 months): 0.01%
HPLC Imp-7 ([2]; 0.5 months): 0.02%
HPLC Valbenazine ([2]; 0.5 months): 99.84%
Moisture ([2]; 0.5 months): 0.2%
Assay (Anhydrous) ([2]; 1 months): 101.0%
Chiral HPLC Chiral imp-1 ([2]; 1 months): 0.01%
Chiral HPLC Chiral imp-2 ([2]; 1 months): 0.04%
Chiral HPLC Valbenazine ([2]; 1 months): 99.95%
HPLC Imp-1 (LSI) ([2]; 1 months): 0.03%
HPLC Imp-2 ([2]; 1 months): 0.01%
HPLC Imp-3 ([2]; 1 months): 0.02%
HPLC Imp-4 ([2]; 1 months): 0.01%
HPLC Imp-5 ([2]; 1 months): 0.01%
HPLC Imp-7 ([2]; 1 months): 0.01%
HPLC Valbenazine ([2]; 1 months): 99.84%
Moisture ([2]; 1 months): 0.19%
Assay (Anhydrous) ([2]; 3 months): 100.33%
Chiral HPLC Chiral imp-1 ([2]; 3 months): 0.01%
Chiral HPLC Chiral imp-2 ([2]; 3 months): 0.07%
Chiral HPLC Chiral imp-3 ([2]; 3 months): 0.02%
Chiral HPLC Valbenazine ([2]; 3 months): 99.91%
HPLC Imp-1 (LSI) ([2]; 3 months): 0.04%
HPLC Imp-2 ([2]; 3 months): 0.02%
HPLC Imp-3 ([2]; 3 months): 0.04%
HPLC Imp-4 ([2]; 3 months): 0.03%
HPLC Imp-5 ([2]; 3 months): 0.02%
HPLC Imp-7 ([2]; 3 months): 0.01%
HPLC Valbenazine ([2]; 3 months): 99.78%
Moisture ([2]; 3 months): 0.4%
Appearance ([2]; 0 months): White
Appearance ([2]; 0.5 months): White solid
Appearance ([2]; 1 months): White solid
Appearance ([2]; 3 months): White solid
